This note sets out measurements from patent US10077446B2, “Glucan-encapsulated siRNA for treating type 2 diabetes mellitus” (The United States of America, as represented by THE …, priority 2013, dated 2018).

One assay concerns MIN6 insulinoma cells. The assay is described as follows: Cytokine, apoptotic gene, insulin and CB1R expression in MIN6 insulinoma cells. In kind it is cell-based, mouse. How it is done:
(§1) Mouse RAW264.7 macrophages (ATCC, Manassas, Va.) were cultured as previously described (Liu, et al. 2003 J Biol Chem 278:45034-45039) and were either treated during 4 hours with various concentrations of AEA (0.1, 0.5, 1, and 10 μM) and/or JD5037 (100 nM) or treated with 30 ng/mL of IL-1β (Abcam Ab9723). Mouse MIN6 insulinoma cells were a gift from NIDDK and were cultured in low glucose DMEM (Gibco 11885) supplemented with 15% FBS (BenchMark 100-006) and 1% antibiotic antimycotic cocktail (Invitrogen 15240-096). Cells were either treated during 4 hours with various concentrations of AEA (0.5, 1 and 5 μM) or treated with 30 ng/mL of IL-1β (Abcam Ab9723).
(§2) For both cell types, medium was collected and immediately frozen in liquid nitrogen. Cells were washed twice in ice-cold sterile PBS before harvesting. EC (endocannabinoid) levels were determined as previously 3, secretion of IL-1β, IL-18, TNF-α and MCP-1 in the medium were determined using ELISA kits (Biosensis BEK-2151-2P, Uscn Life Science & Technology Company E90064Mu, Biosensis BEK-2102-2P, Uscn Life Science & Technology Company E90087Mu, respectively).
MIN6 cells were treated either with vehicle, IL-1β (30 ng/mL), IL1R antagonist (10 ng/mL) for 3 hours or pre-treated 1 h with IL1R antagonist (10 ng/mL) followed by 3 h incubation with IL-1β (30 ng/mL). […] Blot quantification was performed using the gel analysis options of image J software.
(§3) Total mRNA from the liver, pancreas and kidney were extracted with Trizol (Invitrogen), while total mRNA from cells was extracted using RNEASY™ Mini Kit (Qiagen). All extractions were followed by DNase I treatment (Invitrogen). Total mRNA was reverse-transcribed using the ISCRIPT™ cDNA kit (Bio-Rad). Real-time PCR was performed as described previously (Jourdan, et al. 2010 Diabetes 59:926-934) in a 96-well plate using a STEPONEPLUS™ real time PCR system (Applied Biosystems). QUANTITECT™ Primer Assays were used to detect gene expression (Table 3, which lists the primers used for rat and mice (tissue)). Expression of the gene of interest is reported as a relative value comparing it to the geometric average of 18S, L19, L38 and TATA box binding protein expression.

For assay [1], the system named is Zucker diabetic fatty (ZDF) rats. The assay is described as follows: Glucose-stimulated insulin secretion in intact ZDF rats and isolated islets. In kind it is in vivo, rat. As for the experimental part:
Rats were fasted for 12 h, and tail blood was collected to determine basal insulin and c-peptide levels. Rats were then given glucose (3 g/kg) orally by gavage, and, 5 minutes later, tail blood was again collected for determining insulin and c-peptide levels, with the difference over baseline insulin considered as a measure of glucose-induced insulin release, and the comparison with parallel changes in c-peptide levels used to assess the role of insulin production vs. clearance in the observed change in plasma insulin levels.
After 4 days recovery, pancreata from treated animals were inflated via the common bile duct with a solution of LIBERASE™ TL Research Grade (1.18 U/ml, Roche Diagnostics) and digested for 30 min at 37° C. Islets were purified on a discontinuous Ficoll gradient (GE HEALTHCARE) and hand-picked under a stereomicroscope for immediate assessment of […] function by static incubation. Right after isolation, batches of 4 islets were pre-incubated for 2 h in RPMI 1640 containing NaHCO3 (2 g/l), HEPES (25 mM), 10% (v/v) neonatal calf serum (Invitrogen), pH 7.2, and 0.5 g/L glucose at 37° C. in an incubator containing 5% CO2. This was followed by successive 1 h incubations in the presence of 0.5, 1, 1.5, 2, and 3 g/L glucose. Supernatants were collected in each step for insulin quantification (Crystal Chem Inc). […]

Assay [2] shares this test system. As to the kind of experiment: 28-day oral JD5037 treatment of 8-week-old diabetic ZDF rats. In kind it is in vivo, rat. The text has this: Zucker diabetic fatty (ZDF) rats were used to assess the role of endocannabinoids and CB1R in glycemic control and β-cell loss Animal protocols were approved by the Institutional Animal Care and Use Committee of the NIAAA, NIH. Male ZDF rats with their lean controls were obtained from Charles River Laboratories (Wilmington, Mass. 01887, USA). Rats were individually housed and maintained under a 12-h light/dark cycle and fed ad libitum with a standard laboratory diet (STD, NIH-31 rodent diet).
ZDF rats received JD5037 or vehicle (4% DMSO+1% Tween 80 in PBS) by oral gavage according to 2 different protocols. JD5037 was synthesized and its pharmacological properties analyzed as described earlier (Tam, et al. 2012 Cell Metab 16, 167-179). […]
(§4) In the first one, 8-week old diabetic ZDF rats were given 3 mg/kg JD5037 or vehicle for 28 days with lean controls receiving vehicle only. In the second protocol, similar treatment was started in 6-week old pre-diabetic ZDF rats and age-matched lean controls, and treatment continued for 12 weeks until the age of 18 weeks. Body weight and food intake were monitored daily. At the end of treatment in both protocols, rats were sacrificed by decapitation, the brain, liver, kidney, pancreas and combined fat pads were removed, weighed, and snap-frozen in liquid nitrogen or fixed in formalin, and trunk blood was collected for determining endocrine and biochemical parameters. Adiposity index was defined as the combined weight of the epidydimal, retroperitoneal and inguinal fat pads, expressed as % of total body weight. In the second protocol, blood samples were taken weekly to assess the progression of T2DM by measuring blood glucose and monthly to measure insulin and c-peptide levels.
Blood glucose levels were determined using the Elite glucometer (Bayer, Pittsburgh, Pa.). […] Plasma insulin was measured using the Ultra Sensitive rat Insulin ELISA kit (Crystal Chem Inc). Hemoglobin A1c was determined using the Rat Hemoglobin A1c (HbA1c) assay kit (Crystal Chem) and c-peptide was quantified by ELISA (C-peptide (rat) ELISA, ALPCO). Serum leptin and adiponectin were determined by ELISA (B-Bridge International). α-amylase, lipase, and uric acid concentrations were determined using commercially available colorimetric kits (BioAssay Systems). TNF-α and IL-1β were determined using TNF-α ELISA Kit (for Lysates) (RayBiotech, Inc.) and IL1β Rat ELISA Kit (Abeam), respectively.
To determine intra-hepatic triglyceride and cholesterol content, liver tissue was extracted as described previously (Folch, et al. 1957 J Biol Chem 226:497-509). After extraction, 0.5 ml of organic phase was transferred to a clean tube containing 1 ml of 2% Triton X-100 in chloroform and dried using nitrogen. The residue was re-solubilized in 1 ml of distilled water and used for triglycerides content using EnzyChrom™ Triglyceride Assay Kit.
Pancreas was fixed in 10% neutral buffered formalin (NBF), embedded in paraffin and sectioned ([…]) onto glass slides. […] For detection, secondary Ab coupled to FITC or PE were used (Table 2). Images were viewed with a Fluoview FV10i confocal microscope system (Olympus). […]

Assay [3] shares this test system. The assay is described as follows: 12-week JD5037 treatment of 6-week-old pre-diabetic ZDF rats. In kind it is in vivo, rat. The note with it: pre-diabetic 6-week-old ZDF rats, daily JD5037 for 3 months. As for the experimental part: as §4, with “In the second protocol, blood samples were taken weekly to assess the progression of T2DM by measuring blood glucose and monthly to measure insulin and c-peptide levels.” left out
Blood glucose levels were determined using the Elite glucometer (Bayer, Pittsburgh, Pa.). […] Plasma insulin was measured using the Ultra Sensitive rat Insulin ELISA kit (Crystal Chem Inc). Hemoglobin A1c was determined using the Rat Hemoglobin A1c (HbA1c) assay kit (Crystal Chem) and c-peptide was quantified by ELISA (C-peptide (rat) ELISA, ALPCO). Serum leptin and adiponectin were determined by ELISA (B-Bridge International). α-amylase, lipase, and uric acid concentrations were determined using commercially available colorimetric kits (BioAssay Systems). […]

The test system is the same in assay [4]. The assay is described as follows: Hyperinsulinemic euglycemic clamp in ZDF rats. In kind it is in vivo, rat. How it is done:
Clamps and glucose tracer analyses in conscious, cannulated rats were performed as described: right jugular vein of 3 rats per group was catheterized a week prior to the experiment, and clamps were performed by continuous infusion of insulin at 3 mU/kg/min and co-infusion of 3H-D-glucose to maintain euglycemia. The protocol for radioactive clamps to evaluate glucose fluxes was adapted from Buettner, et al. (Buettner, et al. 2005 J Clin Invest 115:1306-1313). 3H-D-glucose (Perkin Elmer) was first infused at 0.8 μCi/min for one minute and then at 0.04 μCi/min for 2 h prior to insulin infusion, and the tritiated glucose infusion was pursued during the rest of the experiment at the same rate. 10 μl of blood were sampled from the tail 15 and 5 min before starting insulin infusion and 30, 20, 10 minutes before the end of the experiment.
Blood samples were centrifuged in order to obtain serum. Serum was snap frozen on dry ice and, once all the samples were available, 5 μl serum was transferred to 25 μl dionized water and then mixed with 25 μl of 0.1N ZnSO4. Samples were precipitated with addition of 25 μl of 0.1N Ba(OH)2. After centrifugation, the supernatant was dried overnight, resuspended in water, and counted in scintillation liquid. Glucose turnover was calculated as the ratio of tritiated glucose infusion rate over the specific activity of blood glucose.

The next assay deals with RAW264.7 macrophages. As to the kind of experiment: Proinflammatory signaling in cultured RAW264.7 macrophages. In kind it is cell-based, mouse. The settings on record: 4 h. As for the experimental part:
as §1, §2, §3

The mark [5] stands for this setting: ZDF rats, 3 mg/kg JD5037 oral, 28 days.
The mark [6] stands for this setting: plasma, ZDF rats, 3 mg/kg/day JD5037 for 28 days, mean ± SEM.

As for IL-1β: interleukin-1β (Abcam Ab9723), in the assay with MIN6 insulinoma cells, the “maximally effective concentration for reducing insulin gene expression” value was 30 ng/mL. Moreover, in the assay on MIN6 insulinoma cells (30 ng/mL IL-1β), the “CB1R mRNA and protein” value is “drastically reduced”; the “anti-apoptotic genes Bcl-2 and Bcl-xl” value is “drastically suppressed”; the “pro-apoptotic genes Bak and Bax” value is reported as “markedly induced”.

On to `CC(C)[C@H](N/C(=N\S(=O)(=O)c1ccc(Cl)cc1)N1C[C@H](c2ccccc2)C(c2ccc(Cl)cc2)=N1)C(N)=O` [JD5037, (S)-2-((S,E)-3-(4-chlorophenyl)-N′-((4-chlorophenyl)sulfonyl)-4-phenyl-4,5-dihydro-1H-pyrazole-1-carboximidamido)-3-methylbutanamide], for which, in assay [1] (ZDF rats, JD5037-treated), the “elevated basal insulin levels” value was “did not affect”. Also, the “GSIS (glucose-stimulated insulin secretion)” value in assay [1] (both in vivo and in vitro (isolated islets)) is on record as “restored”. The “elevated Nlrp3, IL-1β, IL-18, p65 NFκB, caspase-1 activity, TXNIP and IL-1 receptor mRNA” value in assay [2] (ZDF islets/pancreas, JD5037 28 days) is “completely reversed”. Moreover, in assay [2] (ZDF pancreas, JD5037 4 weeks), the “ASC mRNA” value is on record as “normalized” and the “small increase in AIM-2 expression” value is “unaffected”. Further, the “expression of the IL-1R antagonist” value in assay [2] (ZDF pancreas, JD5037 28 days) is on record as “increased”. Also, in assay [2] (setting [5]), the “body weight or adiposity” value was “did not affect”, the food intake entry is “small reduction”, the “hyperglycemia of ZDF rats” value was “completely reversed” and the “hyperinsulinemia (along with increased C-peptide levels)” value is “paradoxically enhanced”. Moreover, the “steatosis, associated hepatocellular damage, increased lipogenic gene expression” value in assay [2] (setting [5]) is recorded as “greatly attenuated”. Besides, in assay [2] (ZDF rats, 3 mg/kg JD5037 oral, 28 days, FIG. 1c), the “fasting blood glucose and HbA1c” value is “normalizes”. Besides, in assay [2] (ZDF rats, JD5037 4 weeks), the Tunel-positive islet cells result was “reduced number”; the “decreased plasma adiponectin and pancreatic expression of adipoR1 and adipoR2” value was “reversed”; the “insulin mRNA and protein in ZDF islets” value is on record as “normalized”; the “reduced pancreatic expression of glucokinase (Glck) and Glut2” value was “normalized”. The “increased pancreatic anandamide levels” value in assay [2] (ZDF rats, JD5037 4 weeks, LC/MS/MS) is recorded as “normalized”. Besides, the “macrophage infiltration of islets” value in assay [2] (ZDF rats, JD5037 28 days) is “reduced”. Besides, in assay [2] (ZDF vs. lean rats, JD5037 4 weeks), the “rise in expression of CB1R in islets” value is on record as “reversed”. Also, in assay [2] (setting [6]), the Adiponectin turned out to be 5.70 ± 0.07 µg/mL, the Cholesterol came to 104.8 ± 3.85 mg/dL, the IL-1β came to 7.63 ± 0.78 ng/mL and the Leptin came to 9.48 ± 0.31 ng/mL. Moreover, in assay [2] (setting [6]), the TG was 817.6 ± 31.36 mg/dL, the TNF-α stood at 0.83 ± 0.07 pg/mL and the Uric acid amounted to 2.57 ± 0.04 µg/mL. Moreover, in assay [3], the hyperglycemia result was “attenuated and its development delayed”; the “rapid decline in plasma insulin and c-peptide” value was “largely prevented”. Besides, the insulin resistance result in assay [4] was “not significantly affected”. Besides, in assay [4] (FIG. 1d), the peripheral glucose uptake entry is on record as “slightly improves”.

With “IL-1R antagonist: IL-1 receptor antagonist used at 10 ng/mL in MIN6 cells”, the “IL-1β-induced reduction of CB1R mRNA and protein” value in the assay with MIN6 insulinoma cells (IL-1R antagonist 10 ng/mL) is on record as “blocked”.

Take `CCCCC/C=C\C/C=C\C/C=C\C/C=C\CCCC(=O)NCCO` [anandamide]: in the assay on RAW264.7 macrophages (RAW264.7 cells), the “concentration at which peak changes in cytokine secretion were observed” value worked out at 0.5 µM; the “secretion of IL-1β, TNF-α, and MCP-1” value is “markedly increased”. Moreover, in the assay with RAW264.7 macrophages (RAW264.7 macrophages), the CB2R expression result is “without affecting”; the “expression of Nlrp3 and caspase-1” value is reported as “robustly increased”. Moreover, in the assay with MIN6 insulinoma cells, the “maximally effective concentration for reducing insulin gene expression” value was 0.5 µM. Further, the “pro- and anti-apoptotic gene expression” value in the assay with MIN6 insulinoma cells (0.5 μM anandamide) is “little or no effect”. In addition, the “levels of IL-1β, TNF-α, and MCP-1 in the medium” value in the assay with MIN6 insulinoma cells (4 h) is “did not affect”.
